According to patent US20100120703A1, “COMPOSITIONS AND METHODS FOR TREATING CANCER” (priority 2007, published 2010):

Columns and labels:
[1] = test system: Sprague Dawley (SD) rats; experiment: Serum AST/ALT assay, promotion stage; assay type: in vivo, rat; details: promotion stage (FIG. 10), 15 mg/kg oral daily
Source text: In the promotion stage experiment, rats in the negative control group received weekly intraperitoneal (i.p.) injection of DMSO for the first 2 weeks and then Corn Oil for the rest of the schedule. Rats in the positive control and SIN-treatment groups both received weekly intraperitoneal (i.p.) injection of the carcinogen DEN for the first 2 weeks and then promoter, Carbon Tetrachloride (CCl4) for the rest of the schedule. Two weeks of fasting were inserted between the initiator carcinogen treatment and the promoter CCl4 treatment. During the fasting period of 2 weeks, rats were fasted for 5 days, followed by a 2 day feeding, and another 5 days of fasting. Water was given ad libitum. Negative and positive control groups received oral treatment of water once a day after fasting. Sinigrin with dosage 15 mg/kg was administered orally to the treatment group daily for 28 weeks after fasting. […]
The serum AST activity assay was measured by a Stanbio AST (UV-Rate) kit. […] Absorbance was measured at OD 340 nm. After incubation for 1 minute, a reading was taken and the reading at this point was counted as time zero. Readings were then taken at 30 second interval for 3 minutes. The change of absorbance per minute was calculated and the AST activity was calculated by the formula
The ALT assay was measured by a Stanbio […]. […]

[2] = test system: p53, Mdm2, p21, PCNA, Bax and Bcl-2; experiment: Gene expression assay (semi-quantitative PCR, Western blot) in rat liver, progression stage; assay type: in vivo
Description: RNA was extracted from 300 μg of rat liver and was measured as described in foregoing examples Three micrograms of total RNA, 1 μl of an oligo dT primer and certain volume of RNase-Free H2O were mixed into a total volume of 12 μl. The mixture was incubated at 70° C. for 10 minutes and immediately chilled on ice. Four microliters of 5× First Stand Buffer, 2 μl of 0.1M DTT, 1 μl of 10 mM dNTP mix, and 1 μl of SuperScript II were added to each tube and mixed. The tubes were incubated at 42° C. for 50 minutes followed by 70° C. for 15 minutes before chilling on ice. The cDNA was then ready for PCR amplification.
The PCR reactions were performed in a final volume of 20 μl in a Gene Amp® PCR system. The PCR reaction mix contained 1 μl of cDNA synthesized previously, 2 μl 10×PCR Buffer, 0.4 μl 10 mM dNTP mix, 1.2 μl 25 mM MgCl2, 1 μl 10 mM primer mix, 0.2 μl recombinant Taq polymerase, and 14.2 μl autoclaved ddH2O.
The intensity of the PCR products was analyzed by the software Image J. The band intensity of the β-actin gene was measured as an internal control. The ratio of the band intensities of the target gene to the β-actin gene was used to compare the mRNA level of each gene between different treatment groups.
Three hundred micrograms of each liver sample were homogenized in the Solution C at 1 g/ml using a glass homogenizer on ice. The homogenate was transferred to a microcentrifuge tube and centrifuged at 13,000 rpm for 20 minutes. The supernatant was collected and equal volume of 2× sample loading dye was added to each sample. The samples were stored at −20° C. The protein was used for immunodetection of the expression level of Bax, Bcl-2, PCNA and p21.
Three hundreds micrograms of each liver sample were homogenized in Solution A at 1 g/ml using the glass homogenizer on ice. The homogenate was transferred into a microcentrifuge tube and centrifuged at 3,000 rpm for 5 minutes to spin down the unbroken tissue. The supernatant was collected and incubated on ice for 5 minutes and then centrifuged at 5,000 rpm for 5 minutes. The supernatant was discarded and the pellet was lysed by 100 μl Solution B. The lysing process lasted for 20 minutes on ice. After incubation, the solution was centrifuged at 12,000 rpm for 15 seconds to spin down the cell debris. The supernatant was collected and equal volume of 2× sample loading dye was added to each sample. The samples were ready for immunodetection of the expression level of p53 and mdm2.
Each of the transferred membrane blots was incubated in 4 ml TBST with 5% non-fat milk powder and primary antibody overnight at 4° C. After incubation, the membrane was washed in TBST buffer for 10 minutes for 3 times. Each transferred membrane blot was then incubated in 4 ml TBST and 5% non-fat milk powder with secondary antibody for 1 hour at room temperature. After incubation, the membrane was washed in TBST buffer for 10 minutes for 3 times. The membrane was ready for ECL reaction.
The films that captured the signal from the ECL reaction were scanned into the computer and analyzed by the software Image J to read the density of darkness.
Rats in the negative control group received weekly intraperitoneal (i.p.) injection of DMSO for the first 2 weeks and then Corn Oil for 28 weeks. Rats in the positive control and SIN-treatment groups both received weekly intraperitoneal (i.p.) injection of DEN for the first 2 weeks and then CCl4 for 28 weeks. Two weeks of fasting were inserted between DEN treatment and CCl4 treatment. Starting from 33rd week, negative and positive control groups received oral administration of water once a day. Sinigrin with dosage 15 mg/kg was administered orally to the SIN-treatment group daily for 24 weeks. After treatment, the rats were killed. Blood and liver were collected and processed as described in the foregoing examples.
The gene expression assays were performed as described in the foregoing examples. […]

With `C=CC/C(=N/OS(=O)(=O)[O-])S[C@@H]1OC(CO)[C@@H](O)C(O)C1O.[K+]` (some centres unmarked) [SIN, sinigrin] the “rat serum ALT level” value [1] was “levels similar to those in the negative control”, the “rat serum AST level” value [1] was “levels similar to those in the negative control” and the “Mdm2 mRNA expression” value ([2]; RT-PCR) was “reduced back to levels near or even lower than the negative control”. For the same molecule, the “p53 mRNA expression” value ([2]; RT-PCR) was “reduced back to levels near or even lower than the negative control”, the “Bax protein expression (decreased in positive group)” value ([2]; Western blot) was “reversed” and the “Bcl-2 protein expression (increased in positive group)” value ([2]; Western blot) was “reversed”. For the same molecule, the “Mdm2 protein expression (increase in positive control)” value ([2]; Western blot) was “partially reversed”, the “PCNA protein expression (increased in positive group)” value ([2]; Western blot) was “reversed” and the p21 protein expression ([2]; Western blot) was “restored its expression to a level substantially higher than the negative control”. The “total p53 protein level” value ([2]; Western blot) was “significantly increased” and the “wild type p53 protein level” value ([2]; Western blot) was “restored its expression to a level even higher than that of the negative control”.
